Counter-ions that a name gives are not always drawn. Like-named read-outs stand apart in the source and are kept apart here.
Key:
[1] = hygroscopicity / moisture uptake at 95% relative humidity by Dynamic Vapour Sorption (DVS); format: physicochemical; settings: for % moisture uptake, 30 min / % moisture uptake, 70 min / % moisture uptake, 3 hours / % moisture uptake, 6 hours: DVS; for moisture uptake equilibrium reached or not: at the last time point (6 hours; 30 min for succinate)
Procedure: The following experiment was carried out to determine moisture sorption/desorption profiles of metformin (2:1) fumarate salt and metformin (2:1) succinate salt compared to the moisture uptake properties of metformin hydrochloride salt.
The hygroscopicity of metformin salts was assessed by Dynamic Vapour Sorption (DVS), a means of rapidly assessing sample moisture uptake properties. […] […] The weight increase of sample at each condition is recorded until a defined minimal rate of mass change is reached or a specified time period for equilibrium exceeded.

[2] = compaction susceptibility (tendency of the salt to compact under its own weight); format: physicochemical
[3] = 95% relative humidity/25° C., hydrochloride

Row | Compound | moisture content after 6 hours (summary) ([1]; 95% relative humidity at 25° C., hydrochloride) [%] | % moisture uptake, 30 min [1, 3] [%] | % moisture uptake, 70 min [1, 3] [%] | % moisture uptake, 3 hours [1, 3] [%] | % moisture uptake, 6 hours [1, 3] [%] | hygroscopicity, moisture uptake at 6 hours [1, 3] | moisture uptake equilibrium reached or not ([1]; 95% relative humidity/25° C.) | moisture absorbed compared to the metformin (2:1) fumarate and succinate salts ([1]; vs metformin (2:1) fumarate and succinate salts, 95% relative humidity) | compaction susceptibility ([2]; hydrochloride) | moisture content after 6 hours (summary) ([1]; 95% relative humidity at 25° C.) [%] | % moisture uptake, 30 min ([1]; 95% relative humidity/25° C.) [%] | % moisture uptake, 70 min ([1]; 95% relative humidity/25° C.) [%] | % moisture uptake, 3 hours ([1]; 95% relative humidity/25° C.) [%] | hygroscopicity, moisture uptake at 6 hours ([1]; 95% relative humidity/25° C.) | % moisture uptake, 6 hours ([1]; 95% relative humidity/25° C.) [%] | compaction susceptibility [2] | equilibrium moisture content after 30 minutes (summary) ([1]; 95% relative humidity at 25° C., 30 minutes) [%] | hygroscopicity, moisture uptake at 30 minutes ([1]; 95% relative humidity/25° C., 30 minutes)
1 | CN(C)C(=N)N=C(N)N [metformin hydrochloride, reference compound] | 20 | 1.2 | 3.3 | 10.0 | 20.1 | greater than 20 % moisture uptake | did not reach equilibrium | substantially greater amounts of moisture | high compaction susceptibility |  |  |  |  |  |  |  |  | 
2 | CN(C)C(=N)N=C(N)N [metformin (2:1) fumarate] |  |  |  |  |  |  |  |  |  | 6.6 | 1.0 | 2.0 | 4.1 | less than 7 % moisture uptake | 6.6 | low compaction susceptibility |  | 
3 | CN(C)C(=N)NC(=N)N [metformin (2:1) succinate] |  |  |  |  |  |  | reach equilibrium |  |  |  | 0.27 |  |  | less than 7 % moisture uptake |  | low compaction susceptibility | 0.27 | less than 1 % moisture uptake
